Measured values: patent publication US6989377B2, “Treating vitamin D responsive diseases” (priority 1999, dated 2006)
Marks after values point to notes of the source that are not given here.

Assays:
Format in all cases: in vivo, mouse
[1] = system: DS-induced colitis in C3H/HeJ male mice; experiment: Calcitriol prevention of DS-induced colitis
Protocol: Fecal hemoglobin was analyzed in the mice to determine bleeding from a breached intestinal barrier. […] Co., Needham Heights, Mass.), the supernatants were decanted into fresh tubes and stored frozen at -20° C. Hemoglobin in the supernatants was analyzed by a method adapted from Saitoh et al., Digestion, 56:67-75, 1995, and Liem et al., Anal. Biochem., 98:388-393, 1979, with rat hemoglobin as standard (Sigma-Aldrich). The supernatants were diluted 1:25 in TBS. […] The reaction was stopped with 100 μL of 2 M phosphoric acid, and the absorbance at 450 nm was measured with an MRX Revelation Microplate Reader (DYNEX Technologies). […] The mice were euthanized with an i.p. injection of pentobarbital. […] The fixed tissue was embedded in paraffin, sectioned at 6 μm, stained with hematoxylin and eosin, and examined by light microscopy. Scoring was conducted by a veterinary pathologist in blinded fashion. […] Clin. Invest., 98:1010-1020, 1996. The scores were summed to provide a total colitis score for each mouse. […] In particular, age-matched C3H/HeJ male mice were fed a synthetic diet (see Example 6) with or without calcitriol or prednisolone for one week. […] The mice were weighed every 3-4 days thereafter. […] Serum and colon tissue were collected on day 28. Most assays were performed as described in Example 6, and the terminal serum calcium assay was performed as described below. […] The serum was decanted and stored frozen at -20° C. The samples, standards, and buffer blanks (2 μL each) were aliquoted into duplicate wells of a 96-well plate. Calcium reagent working solution (0.25 mL), prepared according to the manufacturer's directions (Sigma Diagnostics, St. Louis, Mo.), was added to each well, and the absorbance at 570 nm was measured.

[2] = system: DSS-induced colitis in 129X1/SvJ male mice; experiment: Treatment at the first signs of DSS-induced colitis in 129X1/SvJ mice; conditions: 50 ng/d from day 4 of 1% DSS
Excerpt: The 129×1/SvJ strain is genetically similar to the 129/Ola strain and to the 129/SvPas strain, which is less susceptible to DSS-induced colitis than C3H/HeJ.

[3] = system: DS-induced colitis in C3H/HeJ male mice; experiment: Calcitriol prevention of DS-induced colitis; conditions: 50 ng/day in diet from day −7; 1% DS days 0 to 5; terminated day 27
male C3H/HeJ mice = experiment: DS-induced colitis model in mice (weight, mortality, fecal hemoglobin, colon histopathology); conditions: for Colon Histopathology (sum): total colitis score 0 to 16
Excerpt: This Example describes the generation of a mouse model for dextran sulfate (DS) induced colitis. This DS-induced colitis model was adapted from Okayasu et al. (1990) for use with a synthetic diet. In this Example, male C3H/HeJ mice were used, as these mice are highly susceptible to DS-induced colitis. Initially, mice were given 3.5% DS w/v in acidified water for 5 days, followed by acidified water without DS, and continuously fed a synthetic diet (synthetic diet described in Smith and Hayes, PNAS, USA, 84:5878-5882, 1987). […] These mice shunned the water containing DS, and met their hydration needs by consuming the synthetic diet (which is approximately 60% water by weight). A second group of mice were given 3.5% DS w/v in acidified water for 5 days, followed by acidified water without DS, and continuously fed laboratory chow (Purina mouse chow #5008) as described in Mahler et al., Gastrointest, Liver Physiol., 37:G544-G551 (1996). These mice, consuming an average of 0.57 g DS/mouse, lost weight (controls 26.1±0.7 g; DS group 22.8±0.3 g), and had hemoglobin (Hg) in the stool (controls 0±0 mg Hg/g stool; DS group 11.4 mg Hg/g stool).
To adapt the DS-induced model for use with the synthetic diet (see Smith and Hayes, 1987), a third group of mice were given graded amounts of DS in acidified water and a synthetic diet for 5 days, followed by acidified water and the synthetic diet without DS. These mice were weighed twice weekly and subjected to various other assays, including: fecal hemoglobin analysis, and histopathologic analysis. The results are presented below in Tables 2 and 3.
Fecal hemoglobin was analyzed in the mice to determine bleeding from a breached intestinal barrier. Fresh stool samples were collected from individual mice, dried overnight, weighed, and suspended in 0.5 mL of TRIS-buffered saline (TBS; 25 mM TRIS, 0.15 M NaCl, pH 7.6). The stool samples were centrifuged (10,000×g for 10 min) at room temperature in a Micromax centrifuge (International Equip. Co., Needham Heights, Mass.), the supernatants were decanted into fresh tubes and stored frozen at −20° C. Hemoglobin in the supernatants was analyzed by a method adapted from Saitoh et al., Digestion, 56:67-75, 1995, and Liem et al., Anal. Biochem., 98:388-393, 1979, with rat hemoglobin as standard (Sigma-Aldrich). The supernatants were diluted 1:25 in TBS. The assay was done in round-bottom, polystyrene, 96 well microtiterplates (#3555, DYNEX Technologies, Chantily, Va.). The samples, standards, and buffer blanks (20 μL each) were incubated in duplicate for 10 min with 100 μL of a substrate solution made with 9 volumes 3,3′5,5′-tetramethylbenzidine dihydrochloride peroxide solution (Turbo TMB-ELISA, Pierce Chemical Co., Rockford, Ill.) and 1 volume of hydrogen peroxide solution (Stable Peroxide Substrate Buffer, Pierce Chemical Co.). The reaction was stopped with 100 μL of 2 M phosphoric acid, and the absorbance at 450 nm was measured with an MRX Revelation Microplate Reader (DYNEX Technologies). The fecal hemoglobin assay working range was 1 to 100 μg/mL sample.
The mice were euthanized with an i.p. injection of pentobarbital. The cecal and rectal GI tract segments were collected, cut longitudinally, flushed with 10% neutral-buffered formalin, arranged in a spiral pattern in a cassette, and fixed in formalin. The fixed tissue was embedded in paraffin, sectioned at 6 μm, stained with hematoxylin and eosin, and examined by light microscopy. Scoring was conducted by a veterinary pathologist in blinded fashion. Each colon segment (proximal, medial, and distal colon, and rectum) was given a score from 0 to 4, based on the criteria described by Berg et al., J. Clin. Invest., 98:1010-1020, 1996. The scores were summed to provide a total colitis score for each mouse. The total colitis score could range from 0 (no pathology in any segment) to 16 (grade 4 lesions in all colon segments).

[4] = 1% DS in drinking water and synthetic diet, days 0 to 5
[5] = 1.5% DS in drinking water and synthetic diet, days 0 to 5
[6] = 2.0% DS in drinking water and synthetic diet, days 0 to 5
[7] = 3.0% DS in drinking water, laboratory chow

C[C@]12C=CC(=O)C=C1CC[C@@H]1[C@@H]2[C@@H](O)C[C@@]2(C)[C@H]1CC[C@]2(O)C(=O)CO [Prednisolone, prednisolone]
Peak Hg in Stool ([1]; 50 ng/day in diet from day −7, 1% DS days 0 to 5): 12.3 ± 10.0 mg/g
Terminal serum Ca++ ([1]; 50 ng/day in diet from day −7, 1% DS days 0 to 5, terminated day 27): 10.5 ± 1.2 mg/dL
Colon Histopathology, Distal colon ([1]; 50 ng/day, 1% DS, score 0 to 4): 1.1 ± 0.4
Colon histopathology, Medial colon ([1]; 50 ng/day, 1% DS, score 0 to 4): 0.3 ± 0.5
Colon histopathology, Proximal colon ([1]; 50 ng/day, 1% DS, score 0 to 4): 1.0 ± 0
Colon histopathology, Rectum ([1]; 50 ng/day, 1% DS, score 0 to 4): 2.9 ± 1.1
Colon histopathology, Sum ([1]; 50 ng/day, 1% DS, total score 0 to 16): 5.3 ± 1.4
Colon Histopathology, Distal colon [2]: 2.0 ± 0.3
Colon Histopathology, Middle colon [2]: 0.2 ± 0.3
Colon Histopathology, Rectum + anus [2]: 0.8 ± 1.1
Colon histopathology, Proximal colon [2]: 0.7 ± 0.4
Colon histopathology, Sum [2]: 3.7 ± 1.3
Peak fecal hemoglobin ([2]; 1 cycle, terminated 21 days later): 0.4 ± 0.6 mg/g
Terminal Serum Ca ([2]; terminated 21 days later): 8.3 ± 1.3 mg/dL
Terminal weight ([2]; terminated 21 days later): 26.5 ± 02.0 g
Terminal weight [3]: 29.4 ± 1.4 g

dextran sulfate [DS]
Weight change (%, day 0-11) (male C3H/HeJ mice; 1% DS in acidified drinking water and synthetic diet, days 0 to 5): 2.1 ± 0.9%
Mortality (%) (male C3H/HeJ mice; [4]): 0%
Peak Hg in Stool (male C3H/HeJ mice; [4]): 1.8 mg/g
Colon Histopathology (sum) (male C3H/HeJ mice; 1% DS in drinking water and synthetic diet): 6.3 ± 3.5
Mortality (%) (male C3H/HeJ mice; [5]): 66%
Peak Hg in Stool (male C3H/HeJ mice; [5]): 16.7 mg/g
Weight change (%, day 0-11) (male C3H/HeJ mice; [5]): −12.4 ± 0.7%
Colon Histopathology (sum) (male C3H/HeJ mice; 1.5% DS in drinking water and synthetic diet): 6.5
Mortality (%) (male C3H/HeJ mice; [6]): 100%
Peak Hg in Stool (male C3H/HeJ mice; [6]): 31.7 mg/g
Weight change (%, day 0-11) (male C3H/HeJ mice; 2.0% DS in drinking water and synthetic diet, weight change day 0 to 6, when mortality reached 100%): −17.5 ± 0.2^b %
Mortality (%) (male C3H/HeJ mice; [7]): 0%
Peak Hg in Stool (male C3H/HeJ mice; [7]): 11.4 mg/g
Weight change (%, day 0-11) (male C3H/HeJ mice; [7]): −5.4%
Colon Histopathology (sum) (male C3H/HeJ mice; [7]): 9.5 ± 0.9
Hemoglobin (Hg) in the stool (male C3H/HeJ mice; 3.5% DS w/v in acidified water for 5 days, laboratory chow): 11.4 mg Hg/g stool
Body weight (male C3H/HeJ mice; 3.5% DS w/v in acidified water for 5 days, laboratory chow, controls 26.1±0.7 g): 22.8 ± 0.3 g
Signs of colitis (diarrhea, blood in the stool, weight loss) (male C3H/HeJ mice; 3.5% DS w/v in acidified water for 5 days, synthetic diet (mice shunned the DS water)): no signs of colitis
